The source of these data is patent publication US20260262639A1, “PHENYLCYCLOHEXANONE COMPOUND AND USE THEREFOR” (SUMITOMO CHEMICAL COMPANY, LIMITED, priority 2023, published 2026).

Bounds are passed on as bounds.

In the assay the test system is Pythium ultimum. Nature of the assay: Control test against seedling blight fungus (Pythium ultimum). It counts as cell-based. Conditions: 1 μL of 500 ppm DMSO solution + 150 μL PDB medium with spores, 96 well plate, 23° C., 5 days, absorbance at 550 nm. On the procedure: The untreated well represents a test well in which the procedures were carried out under the same conditions as those described in the Test Example except that dimethyl sulfoxide was dispensed in place of a diluted dimethyl sulfoxide solution containing the Present compound. The Present compound was diluted with dimethyl sulfoxide to obtain a diluted solution containing 500 ppm of the compound, 1 μL of the diluted solution was dispensed into a titer plate (96 well), and thereto was then dispensed 150 μL of a potato dextrose broth medium (PDB medium) to which spores of Pythium ultimum were inoculated in advance. This plate was cultured at 23° C. for 5 days, thereby allowing Pythium ultimum to undergo proliferation, and the absorbance at 550 nm of each well of the titer plate was then measured to obtain a value as a degree of growth of Pythium ultimum. As a result, the degree of growth in the well treated with the Present compound was 50% or less relative to the degree of growth in the untreated well.

`CC1CC(S(C)(=O)=O)C(O)(c2ccccc2)CC1=O` (stereo not shown) [Present compound]: the “degree of growth relative to the degree of growth in the untreated well” value was no more than 50%.
